Our source for the ka and kd values is patent US20220194983A1, “PEPTIDE LIGANDS FOR BINDING TO PSMA” (BicycleTx Limited, priority 2018, published 2022).

The test has as its target PSMA (Homo sapiens, UniProt Q04609). The experiment in a line: measured PSMA affinities (ka, kd, KD) of Dap(Me) substituted bicycles, Table 1. Format: binding. To be noted: for ka: association rate; for kd: dissociation rate.

Values joined by “and” are separate entries in the source; they are usually repeats but may differ in a detail not shown here. Equal entries are not always repeated.

PSMA, sequence (Q04609 whole entry): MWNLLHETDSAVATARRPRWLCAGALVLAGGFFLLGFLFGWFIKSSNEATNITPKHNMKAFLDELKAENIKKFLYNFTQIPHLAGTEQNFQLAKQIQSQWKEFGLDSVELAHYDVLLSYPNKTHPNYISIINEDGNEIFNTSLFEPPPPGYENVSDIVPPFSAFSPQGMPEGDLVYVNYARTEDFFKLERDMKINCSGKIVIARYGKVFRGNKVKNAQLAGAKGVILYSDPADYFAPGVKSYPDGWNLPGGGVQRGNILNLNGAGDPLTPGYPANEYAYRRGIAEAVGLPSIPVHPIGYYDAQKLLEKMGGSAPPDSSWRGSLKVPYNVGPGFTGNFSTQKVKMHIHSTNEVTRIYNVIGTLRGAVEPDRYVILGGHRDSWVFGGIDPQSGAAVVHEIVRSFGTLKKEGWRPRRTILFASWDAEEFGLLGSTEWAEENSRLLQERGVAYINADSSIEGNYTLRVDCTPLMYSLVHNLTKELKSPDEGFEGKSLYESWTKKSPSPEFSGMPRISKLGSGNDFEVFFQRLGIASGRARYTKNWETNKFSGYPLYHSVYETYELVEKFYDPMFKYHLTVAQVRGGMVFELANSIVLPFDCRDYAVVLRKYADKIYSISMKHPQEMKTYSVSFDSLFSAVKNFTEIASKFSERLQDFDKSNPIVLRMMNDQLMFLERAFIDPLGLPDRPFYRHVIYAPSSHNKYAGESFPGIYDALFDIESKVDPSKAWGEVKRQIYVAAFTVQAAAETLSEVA

For the substance “[Ac][Gla]V[Dap(Me)]WDCF[Nle][Nle]EDGT[Dap(Me)]A [BCY00009312]”, the ka was 1.01E+05 M1s1 and 7.35E+04 M1s1; the kd is 7.77E−03 s1 and 1.21E−02 s1.
“[Ac][dE]V[Dap(Me)]KDCF[Nle][Nle]EDGT[Dap(Me)]A [BCY00009314]”: the ka is given as 3.79E+04 M1s1 and the kd is 3.86E−02 s1.
In the case of “[Ac][dE]V[Dap(Me)]WDCFL[Nle]EDGT[Dap(Me)]A [BCY00009306]”, the ka is 9.04E+04 M1s1 and the kd came to 1.97E−02 s1.
Taken in the same sequence, the figures for “[Ac][dE]V[Dap(Me)]WDCFY[Nle]EDGT[Dap(Me)]A [BCY00009308]” were 8.73E+04 M1s1 and 2.88E−02 s1.
For “[Ac][dE]V[Dap(Me)]WDCF[Hse(Me)][Nle]EDGT[Dap(Me)]A [BCY00009305]” the same measures were 4.32E+04 M1s1 and 5.35E−02 s1.
Taken in the same sequence, the figures for “[Ac][dE]V[Dap(Me)]WDCF[Nle]LEDGT[Dap(Me)]A [BCY00009310]” were 5.93E+04 M1s1 and 4.32E−02 s1.
Regarding “[Ac][dE]V[Dap(Me)]WDCF[Nle][Hse(Me)]EDGT[Dap(Me)]A [BCY00009309]”, the ka turned out to be 5.17E+04 M1s1 and the kd was found to be 2.93E−01 s1.
Consider “[Ac][dE]V[Dap(Me)]WDCF[Nle][Nle]EDGT[Dap(Me)]A [BCY00009300]”, for which the ka came out at 7.04E+04 M1s1 and the kd is given as 1.02E−02 s1.
Taken in the same sequence, the figures for “[Ac][dE]V[Dap(Me)]WDCF[Nle][tBuAla]EDGT[Dap(Me)]A [BCY00009311]” were 2.51E+04 M1s1 and 3.10E−03 s1.
For “[Ac][dE]V[Dap(Me)]WDCF[tBuAla][Nle]EDGT[Dap(Me)]A [BCY00009307]” the same measures were 6.71E+04 M1s1 and 3.26E−02 s1.
“[Ac][dE]V[Dap(Me)]WDCK[Nle][Nle]EDGT[Dap(Me)]A [BCY00009315]” showed a ka of 2.81E+04 M1s1 and a kd of 4.62E−02 s1.
Taken in the same sequence, the figures for “[Ac][dE]V[Dap(Me)]WDCY[Nle][Nle]EDGT[Dap(Me)]A [BCY00009304]” were 1.03E+05 M1s1 and 1.24E−02 s1.
For “[Ac][dE]V[Dap(Me)][2Nal]DCF[Nle][Nle]EDGT[Dap(Me)]A [BCY00009303]”, the ka came to 8.74E+04 M1s1 and the kd worked out at 1.86E−02 s1.
Taken in the same sequence, the figures for “[Glutarate][dE]V[Dap(Me)]WDCF[Nle][Nle]EDGT[Dap(Me)]A [BCY00009313]” were 1.24E+05 M1s1 and 9.81E−03 s1.
